Measured values published in US20250171420A1 (Monte Rosa Therapeutics, Inc., priority 2022, published 2025).

Columns and labels:
CK1α = target: T1, CK1α (Homo sapiens, UniProt P48729); experiment: CK1α NanoBit Assay (HiBiT-tagged CSNK1A1, HEK293 clonal lines); type: cell-based; details: HEK293 HiBiT-CSNK1A1/LgBiT cells, 24 h incubation
T1 construct: HEK293 clonal lines with CRISPR KI HiBiT tag on CSNK1A1
Method in brief: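 HEK293 clones carrying a CRISPR knock-in HiBiT tag on CSNK1A1 and stably expressing LgBiT are treated with compound for 24 hours at 37° C, 5% CO2, then read by luminescence. Response is normalized as 100*(S−N)/(P−N) against plate negative and positive controls, and DC50 values are derived.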

CRBN/DDB1 = CRBN/DDB1 (Homo sapiens, UniProt Q96SW2); experiment: HTRF binding assay (displacement of Cy5-thalidomide probe from CRBN/DDB1); details: CRBN/DDB1 2.5 nM, Cy5-Thalidomide 100 nM, 30 min; geometric mean; read-out: HTRF_Thali_Disp_DR_geo_IC50
Text: Binding of test compounds to CRBN/DDB1 was monitored in an HTRF assay using 1-[5-({2-[2-(2-{[2-(2,6-dioxopiperidin-3-yl)-1,3-dioxo-2,3-dihydro-1H-isoindol-4-yl]oxy}acetamido)ethoxy]ethyl}carbamoyl)pentyl]-3,3-dimethyl-2-[(1E,3E)-5-[(2E)-1,3,3-trimethyl-5-sulfo-2,3-dihydro-1H-indol-2-ylidene]penta-1,3-dien-1-yl]-3H-indol-1-ium-5-sulfonate as a fluorescent probe. In this assay, compounds displace the fluorescently labeled thalidomide-based probe bound to CRBN and fluorescence is monitored with increasing compound concentration. Assays were conducted in Greiner white 384 well HiBase plates (Cat. No 784075-25) in 10 μL total volume. A one pot detection solution of CRBN/DDB1 (2.5 nM), anti-His Terbium Cryptate Gold (1×, PerkinElmer Cat. #: 61HI2TLB), and Cy5-Thalidomide (100 nM, Tenova Cat.: T52461) was prepared in 20 mM HEPES, 20 mM NaCl, 0.2 mM TCEP, 0.2 mM EDTA, and 0.005% Tween20 was dispensed to each assay plate. Test compounds were stored in dry, ambient temperatures at 10 mM. A 10-point, 1:3 dilution series was prepared from 10 mM stock concentrations in Echo-compatible LDV plates. 10 nL of each compound dilution series was dispensed into assays wells using an Echo 650 (Labcyte inc. USA). 10 nL of 10 mM lenalidomide (Selleckchem Cat no. S1029) was transferred into the active-control wells for the assay and 10 nL of DMSO was transferred into the negative control wells. The assay was then allowed to incubate for 30 min at ambient temperature after transferring the test compounds. Plate measurements were taken on a Pherastar FSX (BMG Labtech, Germany) using the HTRF Red filter (Ex. 337 nm, em1: 620 nm, em2: 665 nm) (Flashes: 50, Integration time: 60-400 μs, Z-height: 10 mm, Ratio-multiplier: 10,000). Analysis, HTRF ratio and IC50 values were derived using KNIME analytics (KNIME Zurich) transformation and fitting within Collaborative Drug Discovery (Collaborative Drug Discovery USA) using a 4-parameter logistic fit. HTRF ratio calculation was performed using the following formula: […]
where Y represents the HTRF ratio response (as defined previously), X the compound concentration in μM, Ymin the minimum response plateau, Ymax the maximum response plateau, IC50 the concentration of agonist that gives a response half way between Ymin and Ymax and HillSlope the steepness of the family of curves. No fitting model constraints was applied on Ymin, or Ymax whilst IC50>0 and −0.5>HillSlope>−3
Ki values were derived from the geometric mean of the IC50 values using the Cheng-Prusoff transformation:
where [L] represents the concentration of fluorescent probe in μM, Kd the affinity (binding constant) of the fluorescent probe in units of μM and IC50 the concentration of agonist that gives a response halfway between Ymin and Ymax (as described in 1.2.1)
Analysis and IC50 values were derived using KNIME analytics (KNIME, Zurich) transformation and fitting within Collaborative Drug Discovery (Collaborative Drug Discovery, USA) as described in 1.2.1. Ki values were derived from the geometric mean of the IC50 values using the Cheng-Prusoff transformation as described in 2.2.2. Data was visualized in GraphPad Prism 8.1.2 (GraphPad, USA) and reported as mean and standard deviation. Microsoft Office Excel 2012 (Redmond, WA) was used for calculation of mean and standard deviation.
IC50 data are reported in Table 3 for compounds in Table 1. In Table 3 below, According to the code, A represents a IC50 value of ≤0.1 μM, B represents a IC50 value>0.1 μM and ≤1 μM, C represents an IC50 value>1 μM.

T1 sequence (P48729 whole entry): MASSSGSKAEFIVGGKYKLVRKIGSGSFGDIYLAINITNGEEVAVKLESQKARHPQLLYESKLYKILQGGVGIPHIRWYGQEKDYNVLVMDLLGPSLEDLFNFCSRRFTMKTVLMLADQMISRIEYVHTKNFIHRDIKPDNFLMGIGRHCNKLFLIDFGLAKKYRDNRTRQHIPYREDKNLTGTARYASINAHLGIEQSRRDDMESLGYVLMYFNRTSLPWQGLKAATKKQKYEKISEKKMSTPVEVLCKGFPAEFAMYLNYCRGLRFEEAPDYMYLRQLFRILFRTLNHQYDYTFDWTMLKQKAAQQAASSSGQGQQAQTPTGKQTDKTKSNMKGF
T1 sequence (Q96SW2 whole entry, further chain): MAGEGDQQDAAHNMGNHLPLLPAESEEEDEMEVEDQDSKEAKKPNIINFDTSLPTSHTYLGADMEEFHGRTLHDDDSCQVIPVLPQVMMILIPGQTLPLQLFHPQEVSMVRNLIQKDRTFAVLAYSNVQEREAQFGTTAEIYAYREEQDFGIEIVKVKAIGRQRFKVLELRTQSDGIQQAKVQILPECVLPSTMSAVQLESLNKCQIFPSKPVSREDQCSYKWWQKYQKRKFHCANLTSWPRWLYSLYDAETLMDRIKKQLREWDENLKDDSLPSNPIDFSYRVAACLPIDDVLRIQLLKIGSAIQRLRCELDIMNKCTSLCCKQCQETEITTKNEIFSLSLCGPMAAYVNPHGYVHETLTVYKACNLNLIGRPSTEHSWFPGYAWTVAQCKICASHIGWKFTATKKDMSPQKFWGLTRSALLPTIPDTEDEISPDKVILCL
T1 sequence (Q16531 2-1140 partner limits assumed): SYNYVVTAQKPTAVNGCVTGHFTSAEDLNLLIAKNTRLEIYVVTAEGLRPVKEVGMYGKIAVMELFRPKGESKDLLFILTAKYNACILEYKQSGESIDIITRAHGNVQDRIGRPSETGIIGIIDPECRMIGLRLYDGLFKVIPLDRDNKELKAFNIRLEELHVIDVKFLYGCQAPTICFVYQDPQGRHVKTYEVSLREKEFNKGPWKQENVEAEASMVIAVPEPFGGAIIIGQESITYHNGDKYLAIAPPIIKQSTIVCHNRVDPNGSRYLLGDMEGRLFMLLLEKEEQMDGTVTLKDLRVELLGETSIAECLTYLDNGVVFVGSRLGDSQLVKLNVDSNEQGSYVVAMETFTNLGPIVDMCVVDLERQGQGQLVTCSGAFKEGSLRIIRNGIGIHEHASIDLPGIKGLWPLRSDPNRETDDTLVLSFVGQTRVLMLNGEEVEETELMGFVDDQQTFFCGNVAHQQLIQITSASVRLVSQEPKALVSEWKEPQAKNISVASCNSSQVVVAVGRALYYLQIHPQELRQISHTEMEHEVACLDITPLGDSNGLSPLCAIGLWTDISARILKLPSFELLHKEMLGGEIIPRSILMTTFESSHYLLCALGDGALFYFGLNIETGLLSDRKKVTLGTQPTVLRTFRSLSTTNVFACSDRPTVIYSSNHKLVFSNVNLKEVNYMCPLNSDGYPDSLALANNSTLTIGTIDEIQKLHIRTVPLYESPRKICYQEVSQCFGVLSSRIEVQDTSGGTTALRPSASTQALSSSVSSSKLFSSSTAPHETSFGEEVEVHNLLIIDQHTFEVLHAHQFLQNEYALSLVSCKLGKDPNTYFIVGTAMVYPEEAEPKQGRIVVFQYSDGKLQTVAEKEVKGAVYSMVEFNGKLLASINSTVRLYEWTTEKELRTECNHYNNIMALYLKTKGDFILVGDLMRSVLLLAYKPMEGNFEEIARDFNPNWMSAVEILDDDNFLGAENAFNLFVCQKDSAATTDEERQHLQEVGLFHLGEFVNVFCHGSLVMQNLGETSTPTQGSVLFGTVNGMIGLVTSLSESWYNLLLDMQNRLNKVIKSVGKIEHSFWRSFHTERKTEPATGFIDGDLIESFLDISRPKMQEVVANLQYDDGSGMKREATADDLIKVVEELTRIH
Sequence of CRBN/DDB1 (Q96SW2 whole entry, species assumed): as the sequence (Q96SW2 whole entry, further chain) above
Sequence of CRBN/DDB1 (Q16531 whole entry partner, species assumed): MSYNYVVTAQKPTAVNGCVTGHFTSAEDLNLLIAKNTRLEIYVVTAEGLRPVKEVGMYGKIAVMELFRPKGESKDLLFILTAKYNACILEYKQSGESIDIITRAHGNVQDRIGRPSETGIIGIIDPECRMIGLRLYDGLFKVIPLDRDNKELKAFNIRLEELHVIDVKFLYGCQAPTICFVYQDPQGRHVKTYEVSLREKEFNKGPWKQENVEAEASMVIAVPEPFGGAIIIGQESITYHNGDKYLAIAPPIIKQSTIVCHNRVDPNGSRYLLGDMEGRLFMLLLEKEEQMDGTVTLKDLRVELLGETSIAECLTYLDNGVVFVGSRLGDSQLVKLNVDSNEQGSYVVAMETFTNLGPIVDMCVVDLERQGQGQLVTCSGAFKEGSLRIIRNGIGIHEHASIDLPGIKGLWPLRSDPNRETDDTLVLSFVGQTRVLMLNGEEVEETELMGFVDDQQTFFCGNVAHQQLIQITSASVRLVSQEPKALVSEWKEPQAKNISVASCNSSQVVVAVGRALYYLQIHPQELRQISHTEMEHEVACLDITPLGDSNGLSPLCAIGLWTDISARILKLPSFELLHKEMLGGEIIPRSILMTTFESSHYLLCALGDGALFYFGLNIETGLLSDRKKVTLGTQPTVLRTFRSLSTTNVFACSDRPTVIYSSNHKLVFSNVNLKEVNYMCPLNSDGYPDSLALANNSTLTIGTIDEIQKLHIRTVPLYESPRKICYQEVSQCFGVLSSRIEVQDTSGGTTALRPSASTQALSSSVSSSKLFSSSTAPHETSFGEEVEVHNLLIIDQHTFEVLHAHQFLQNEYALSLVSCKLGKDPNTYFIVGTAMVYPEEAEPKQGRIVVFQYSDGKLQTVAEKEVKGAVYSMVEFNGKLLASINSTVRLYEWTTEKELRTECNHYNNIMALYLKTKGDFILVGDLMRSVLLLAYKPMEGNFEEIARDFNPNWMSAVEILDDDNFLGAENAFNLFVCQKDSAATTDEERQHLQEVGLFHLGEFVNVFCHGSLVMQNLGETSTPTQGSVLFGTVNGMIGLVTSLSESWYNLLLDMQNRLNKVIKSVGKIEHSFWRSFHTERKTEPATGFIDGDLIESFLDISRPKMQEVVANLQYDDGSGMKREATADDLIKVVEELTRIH

Row | SMILES | DC50 (CK1α) [µM] | IC50 (CRBN/DDB1) [nM]
1 | O=C1CC[C@@H](N2Cc3cc(NC(=O)N4c5ccccc5C[C@H]4C(F)(F)F)ccc3C2=O)C(=O)N1 (single isomer, unassigned) [Compound 359] | < 0.1 | > 1000
2 | O=C1CC[C@H](N2Cc3cc(NC(=O)N4c5ccccc5C[C@@H]4C(F)(F)F)ccc3C2=O)C(=O)N1 (single isomer, unassigned) [Compound 362] | < 0.1 | 100 to 1000
3 | O=C1CCC(N2Cc3cc(NC(=O)N4CCc5ccncc54)ccc3C2=O)C(=O)N1 (stereo not drawn) [Compound 105, N-(2-(2,6-dioxopiperidin-3-yl)-1-oxoisoindolin-5-yl)-2,3-dihydro-1H-pyrrolo[2,3-c]pyridine-1-carboxamide] | < 0.1 | 100 to 1000
4 | CC1(c2ccccc2)CN(C(=O)Nc2ccc3c(c2)CN(C2CCC(=O)NC2=O)C3=O)C1 (stereo not drawn) [Compound 109, N-(2-(2,6-dioxopiperidin-3-yl)-1-oxoisoindolin-5-yl)-3-methyl-3-phenylazetidine-1-carboxamide] | 0.1 to 1 | 100 to 1000
5 | O=C1CCC(N2Cc3cc(NC(=O)N4CC(c5ccccc5)C4)ccc3C2=O)C(=O)N1 (stereo not drawn) [Compound 111, N-(2-(2,6-dioxopiperidin-3-yl)-1-oxoisoindolin-5-yl)-3-phenylazetidine-1-carboxamide] | 0.1 to 1 | 100 to 1000
6 | O=C1CCC(N2Cc3cc(NC(=O)N4CCc5cccnc54)ccc3C2=O)C(=O)N1 (stereo not drawn) [Compound 112, N-(2-(2,6-dioxopiperidin-3-yl)-1-oxoisoindolin-5-yl)-2,3-dihydro-1H-pyrrolo[2,3-b]pyridine-1-carboxamide] | 0.1 to 1 | > 1000
7 | N#Cc1ccc2c(c1)N(C(=O)Nc1ccc3c(c1)CN(C1CCC(=O)NC1=O)C3=O)CC2 (stereo not drawn) [Compound 115, 6-cyano-N-(2-(2,6-dioxopiperidin-3-yl)-1-oxoisoindolin-5-yl)indoline-1-carboxamide] | < 0.1 | 100 to 1000
8 | O=C1CCC(N2Cc3cc(NC(=O)N4CCc5cccc(C(F)(F)F)c54)ccc3C2=O)C(=O)N1 (stereo not drawn) [Compound 117, N-(2-(2,6-dioxopiperidin-3-yl)-1-oxoisoindolin-5-yl)-7-(trifluoromethyl)indoline-1-carboxamide] | 0.1 to 1 | 100 to 1000
9 | CC1c2ccccc2N(C(=O)Nc2ccc3c(c2)CN(C2CCC(=O)NC2=O)C3=O)C1C (stereo not drawn) [Compound 123, N-(2-(2,6-dioxopiperidin-3-yl)-1-oxoisoindolin-5-yl)-2,3-dimethylindoline-1-carboxamide] | < 0.1 | 100 to 1000
10 | CC1(C)Cc2ccccc2N1C(=O)Nc1ccc2c(c1)CN(C1CCC(=O)NC1=O)C2=O (stereo not drawn) [Compound 132] | < 0.1 | 100 to 1000
11 | N#Cc1cccc2c1N(C(=O)Nc1ccc3c(c1)CN(C1CCC(=O)NC1=O)C3=O)CC2 (stereo not drawn) [Compound 147, 7-cyano-N-(2-(2,6-dioxopiperidin-3-yl)-1-oxoisoindolin-5-yl)indoline-1-carboxamide] | > 1 | 100 to 1000
12 | O=C1CCC(N2Cc3cc(NC(=O)N4CCc5cccc(Cl)c54)ccc3C2=O)C(=O)N1 (stereo not drawn) [Compound 152, 7-chloro-N-(2-(2,6-dioxopiperidin-3-yl)-1-oxoisoindolin-5-yl) indoline-1-carboxamide] | < 0.1 | 100 to 1000
13 | CCc1cccc2c1N(C(=O)Nc1ccc3c(c1)CN(C1CCC(=O)NC1=O)C3=O)CC2 (stereo not drawn) [Compound 162, N-(2-(2,6-dioxopiperidin-3-yl)-1-oxoisoindolin-5-yl)-7-ethylindoline-1-carboxamide] | < 0.1 | 100 to 1000
14 | O=C1CCC(N2Cc3cc(NC(=O)N4CCc5cccc(F)c54)ccc3C2=O)C(=O)N1 (stereo not drawn) [Compound 163, N-(2-(2,6-dioxopiperidin-3-yl)-1-oxoisoindolin-5-yl)-7-fluoroindoline-1-carboxamide] | < 0.1 | 100 to 1000
15 | Cc1cc2c(cc1C)N(C(=O)Nc1ccc3c(c1)CN(C1CCC(=O)NC1=O)C3=O)CC2 (stereo not drawn) [Compound 171, N-(2-(2,6-dioxopiperidin-3-yl)-1-oxoisoindolin-5-yl)-5,6-dimethylindoline-1-carboxamide] | < 0.1 | 100 to 1000
